Patent US4880791A, “Combination product composed of xanthine derivatives and O-acetylsalicylic acid or its pharmacologically tolerated salts, and its use” (priority 1984, dated 1989)

Legend:
[1] = system: laser-induced thrombosis in the arterioles and venules of the rat mesentery; assay: laser-induced thrombosis in arterioles of the rat mesentery; format: in vivo, rat (female Sprague-Dawley); details: for percentage improvement compared with the placebo controls: 10 mg/kg xanthine derivative and, 1 hour later, 1 mg/kg acetylsalicylic acid orally; for percentage improvement compared with the placebo controls / inhibition in vivo at 10 mg/kg: n = 3; for inhibition in vivo at 10 mg/kg: Rattus norvegicus, po, 10 mg/kg xanthine derivative orally, read-out: percentage improvement compared with the placebo controls; for Changes from controls, % / Changes from controls, absolute / Number of shots: single substance
Experimental: The evaluation was carried out by analysis by vital microscopy (Nature, 218 (1968) 887 and Haemostasis 13 (1983) 61 and IRCS Med. Sci. 12 (1984) 91).
The test substances were administered in 0.9% sodium chloride solution (which contained 1% carboxymethylcellulose (Serva, Heidelberg)) either orally, intraperitoneally or intravenously. Control animals were treated in the corresponding manner but without the test substances. The experimental animals used were male or female Sprague-Dawley or Wistar rats.
The animals which were to be investigated underwent s.c. premedication with 0.1 mg of atropine sulfate in solution and were anesthetized with 100 mg of ketamine hydrochloride and 4 mg of xylazine per kg of body weight i.p. The investigation made use of arterioles and venules of the mesentery, which was coated with degassed liquid paraffin, having a diameter of about 13 μm. The beam of a 4 W argon laser (supplied by Spectra Physics, Darmstadt) was introduced coaxially, by means of a beam adaptation and adjustment system (supplied by BTG, Munich), into the inverted optical path of a microscope (ICM 405, LD-Epipland 40/0.60; supplied by Zeiss, Oberkochen). The wavelength used was 514.5 nm, with an energy above the objective of 30.5 mW. The exposure time per single shot was 1/15 sec. All the measuring operations were recorded by video camera (Trinicon tube, Sony, Cologne) and stored in a recorder (Sony, U-matic 3/4"). The test substances were administered in various doses to the experimental animals, orally one hour, and on i.v. administration 10 min., before the start of the experiment, control animals receiving the same amount of placebo.
The number of shots needed to induce a defined thrombus is counted.
The results of the experiment were subjected to statistical analysis using the .chi.^2 test (L. Cavalli-Sforza, Biometrie (Biostatistics), Stuttgart, 1969, pages 49 et seq.). […]

platelet aggregation = assay: ex vivo platelet aggregation (arachidonic acid, Born aggregometer); format: in vivo, rabbit
[2] = system: erythrocyte filterability; assay: erythrocyte filterability in adjuvant arthritis rats; format: in vivo, rat; details: oral 21 days
Experimental: (§1) The hemorheological, antithrombotic, antiaggregatory and antiinflammatory effects of the combinations according to the invention were investigated after oral administration for 21 days in the pathological model of adjuvant arthritis (induced with Mycobacterium butyricum) is the rat by the method of Clincal Hemorheology 3 (1983) 469-480, and were compared with those of the appropriate individual substances. Blood was taken from the thoracic aorta 1 hour after the last administration of substance. All the details of the determination of the hemorheological effect were as described in Clinical Hemorheology 4 (1984) 263-273. The erythocyte deformability was quantitatively determined in a filtrometer (Myrenne MF 4, Roetgen, Germany) by evaluation of the initial gradient of the flow curve.

erythrocytes = details: treatment with pentoxifylline; cited from earlier work
[3] = system: tendency to thrombosis in arthritic rat; assay: laser-induced tendency to thrombosis in arthritic rats; format: in vivo; details: 30 mg, oral 21 days
Experimental: as §1
The antithrombotic effect was measured using the laser model as described above.

[4] = system: induced platelet aggregation; assay: collagen-induced platelet aggregation in arthritic rats; format: in vivo, rat; details: 30 mg, oral 21 days
Experimental: as §1
The measurements of platelet aggregation were carried out as described above in detail. However, instead of arachidonic acid 0.04 mg of collagen was used to induce platelet aggregation in 1 ml of platelet-rich plasma (PA II aggregometer from Myrenne, Roetgen).

[5] = system: adjuvant arthritis (Mycobacterium butyricum) in the rat; assay: antiinflammatory effect in adjuvant arthritis (paw edema, necrosis index); format: in vivo; details: 30 mg
Experimental: as §1
The antiflammatory effect was quantitatively measured, as quoted above, using the volume of the edema of the paw and using the standard necrosis index.

rat aortas = rat aortas ex vivo, treatment of the animals; cited from earlier work
platelets = details: only at concentrations above those used in medicinal treatment; cited from earlier work

## CCCCn1c(=O)c2c(ncn2CC(C)=O)n(CCCC)c1=O [1-n-Butyl-3-n-butyl-7-(2-oxopropyl-)-xanthine]
[1]
  percentage improvement compared with the placebo controls: 50%
  inhibition in vivo at 10 mg/kg: 33%

## CC(=O)Oc1ccccc1C(=O)O [DL-Lysine monoacetylsalicylate, D,L-lysine monoacetylsalicylate]
Platelet aggregation; I, at 30 min, 1,5 mg/kg i.v. at 15 min
  Aggregation amplitude E ex vivo: 23,5
Platelet aggregation; I, at 45 min, 1,5 mg/kg i.v. at 15 min and 0,5 mg/kg at 35 min
  Aggregation amplitude E ex vivo: 19,5

## CC(=O)CCCCn1c(=O)c2c(ncn2C)n(C)c1=O [Pentoxifylline, 1-(5-oxohexyl)-3,7-dimethylxanthine]
[2]; 30 mg
  erythrocyte filterability: 79%
[2]
  erythrocyte filterability in arthritic rats (in words): can be increased again
erythrocytes
  deformability of the erythrocytes: improved
[3]
  tendency to thrombosis (number of shots): 87%
[4]
  induced platelet aggregation: 94%
[5]
  Percentage improvement, volume of paw edema, left paw: 3%
  Percentage improvement, volume of paw edema, right paw: 0%
Rat aortas
  release of a substance having antiaggregatory activity: can be increased
Platelet aggregation; III, at 45 min, 10 mg/kg i.v. at 15 min
  Aggregation amplitude E ex vivo: 22
Platelet aggregation; III, at 120 min, 10 mg/kg i.v. at 15 min and 10 mg/kg at 60 min
  Aggregation amplitude E ex vivo: 20
[1]; 5 mg/kg oral
  Changes from controls, %: 21%
  Changes from controls, absolute: 0,46
  Number of shots: 2,63
[1]; 10 mg/kg oral
  Changes from controls, %: 54%
  Changes from controls, absolute: 1,16
  Number of shots: 3,33
[1]; 30 mg/kg oral
  Changes from controls, %: 83%
  Changes from controls, absolute: 1,8
  Number of shots: 3,97
[1]; Table 1b, 10 mg/kg pentoxifylline orally without acetylsalicylic acid
  -x (number of shots): 3,27
[1]; Table 1b, 10 mg/kg pentoxifylline orally without acetylsalicylic acid, p < 0,05
  % change from controls: +49%
[1]; oral dose 10 mg/kg
  effect in laser-induced thrombosis: significant effect
[1]; single oral dose 5 mg/kg
  effect in laser-induced thrombosis: not significant
  inhibition of thrombus formation: 20%
platelets
  in vitro aggregation of platelets: can be inhibited

## CC(C)Cn1cnc2c1c(=O)n(CCCCC(C)O)c(=O)n2C (stereo not drawn) [1-(5-Hydroxyhexyl)-3-methyl-7-(2-methyl-propyl)-xanthine]
[1]
  percentage improvement compared with the placebo controls: 34%
  inhibition in vivo at 10 mg/kg: 23%

## CC(C)Cn1c(=O)c2c(ncn2CCCCC(C)O)n(C)c1=O (stereo not drawn) [1-(2-Methylpropyl)-3-methyl-7-(5-hydroxyhexyl)-xanthine]
[1]
  percentage improvement compared with the placebo controls: 39%
  inhibition in vivo at 10 mg/kg: 29%

## CC(=O)CCCCn1c(=O)c2c(ncn2CC(C)C)n(C)c1=O [1-(5-Oxohexyl)-3-methyl-7-(2-methyl-propyl-)-xanthine]
[1]
  percentage improvement compared with the placebo controls: 39%
  inhibition in vivo at 10 mg/kg: 28%

## CCCCCCn1c(=O)c2c(ncn2C)n(C)c1=O [1-Hexyl-3,7-dimethylxanthine]
[1]
  percentage improvement compared with the placebo controls: 46%
  inhibition in vivo at 10 mg/kg: 39%

## CCCn1c(=O)c2c(ncn2CCCCC(C)O)n(C)c1=O (stereo not drawn) [1-Propyl-3-methyl-7-(5-hydroxyhexyl-)-xanthine]
[1]
  percentage improvement compared with the placebo controls: 42%
  inhibition in vivo at 10 mg/kg: 35%

## CCCn1cnc2c1c(=O)n(CCCCC(C)=O)c(=O)n2C [1-(5-Oxohexyl)-3-methyl-7-propylxanthine]
[1]
  percentage improvement compared with the placebo controls: 56%
  inhibition in vivo at 10 mg/kg: 42%

## CC(=O)CCCCn1cnc2c1c(=O)n(CCC(C)C)c(=O)n2C [1-(3-Methylbutyl-3-methyl-7-(5-oxo-hexyl)-xanthine]
[1]
  percentage improvement compared with the placebo controls: 35%
  inhibition in vivo at 10 mg/kg: 26%

## CC(O)CCCCn1cnc2c1c(=O)n(C(C)C)c(=O)n2C (stereo not drawn) [1-(Isopropyl)-3-methyl-7-(5-hydroxy-hexyl-)-xanthine]
[1]
  percentage improvement compared with the placebo controls: 36%
  inhibition in vivo at 10 mg/kg: 31%

## CCn1c(=O)c2c(ncn2CCCCC(C)=O)n(CC)c1=O [1-Ethyl-3-ethyl-7-(5-oxohexyl-)-xanthine]
[1]
  percentage improvement compared with the placebo controls: 48%
  inhibition in vivo at 10 mg/kg: 41%

## CC(C)CCn1c(=O)c2c(ncn2CCCCC(C)O)n(C)c1=O (stereo not drawn) [1-(3-Methylbutyl)-3-methyl-7-(5-hydroxyhexyl-)-xanthine]
[1]
  percentage improvement compared with the placebo controls: 37%
  inhibition in vivo at 10 mg/kg: 28%

## CCCn1cnc2c1c(=O)n(CCC(C)=O)c(=O)n2C [1-(3-Oxobutyl)-3-methyl-7-propyl-xanthine]
[1]
  percentage improvement compared with the placebo controls: 49%
  inhibition in vivo at 10 mg/kg: 40%

## CCCn1cnc2c1c(=O)n(CCCCC(C)O)c(=O)n2C (stereo not drawn) [1-(5-Hydroxyhexyl)-3-methyl-7-propylxanthine]
[1]
  percentage improvement compared with the placebo controls: 53%
  inhibition in vivo at 10 mg/kg: 40%

## CC(=O)CCCCn1cnc2c1c(=O)n(CC(C)C)c(=O)n2C [1-(2-Methylpropyl)-3-methyl-7-(5-oxohexyl-)-xanthine]
[1]
  percentage improvement compared with the placebo controls: 39%
  inhibition in vivo at 10 mg/kg: 28%

## CC(O)CCCCn1c(=O)c2c(ncn2C)n(C)c1=O (stereo not drawn) [1-(5-Hydroxyhexyl)-3,7-dimethyl-xanthine, 1-(5-hydroxyhexyl)-3,7-dimethylxanthine]
[1]
  percentage improvement compared with the placebo controls: 68%
  inhibition in vivo at 10 mg/kg: 52%
